1 compound from patent US12077508B2, “Inhibitors of the Notch transcriptional activation complex kinase (“NACK”) and methods for use of the same” (UNIVERSITY OF MIAMI, priority 2018, dated 2024) can be followed below.

The structures appear in SMILES notation.

One data set can be described thus: Plasma pharmacokinetics. The class given is in vivo, male C57 BL/6 mice. The note with it: for Tmax: ip. From the text:
The plasma pharmacokinetic profile of Z271-0326 was investigated following a single intravenous and intraperitoneal dose administration in male C57 BL/6 mice (FIG. 12). […] The Vss was similar to the normal volume of total body water (0.7 L/kg). The Vss is a pharmacokinetic parameter, which represents the volume distribution of a drug in the body tissue. […] This dose was MTD for the 4-week efficacy studies shown in preliminary data.
The plasma pharmacokinetic profile of Z271-0326 was investigated following a single intravenous and intraperitoneal dose administration in male C57 BL/6 mice.

The test system of another data set is Notch target genes. As to the kind of experiment: RT-qPCR of Notch target genes in Notch/NACK-dependent cells. The data set is classed as cell-based, human. As to conditions: OE33; FIG. 6B. The procedure: To assess the effect of NACK inhibitor on Notch target gene transcription, Notch/NACK-dependent cell lines were treated with NACK inhibitors. The cells were also treated with DAPT as a positive control. DMSO treated cells served as a vehicle control for comparison. Gene expression was normalized to HPRT, and TBP served as a negative control to validate normalization.
Reverse transcription and qPCR analysis were performed as described previously (See Weaver et al., Cancer Research 74, 4741-4751 (2014)). Gene expression was normalized to the TATA-binding protein (“TBP”) gene. As a control, hypoxanthine phosphoribosyltransferase 1 (“HPRT”) gene expression was also monitored.
On the technique in general: Real-time PCR tracks product formation cycle by cycle.

In another data set the test system is OE33 cells. The experiment in a line: Cell apoptosis assay (Annexin V/PI flow cytometry). The data set is classed as cell-based, human. The note with it: day 7 of treatment, FIG. 9A. The procedure:
To investigate how Z271-0326 inhibits cell growth in EAC cell lines, the effect of Z271-0326 treatment was evaluated on apoptosis. OE33 was treated either with the GSI DAPT or Z271-0326 every other day, and their effects on apoptosis were analyzed. On day 7 of treatment, cell apoptosis was analyzed using FITC Annexin V/Dead Cell Apoptosis Kit with FIFC annexin V and PI for flow cytometry (Invitrogen, V13242).

Take `CCN(CC)C(=O)c1cnn2ccc(C3CCN(S(=O)(=O)c4ccc(NC(C)=O)cc4)CC3)cc12` [Compound Z271-0326, 5-(1-((4-acetamidophenyl)sulfonyl)piperidin-4-yl)-N,N-diethylpyrazolo[1,5-a]pyridine-3-carboxamide]: the Tmax in “Plasma pharmacokinetics” (male, C57BL/6, mouse, plasma, single intraperitoneal 25 mg/kg) turned out to be 15 min; in “Plasma pharmacokinetics” (male, C57BL/6, mouse, plasma, single intraperitoneal 100 mg/kg), 60 min. In addition, in the data set “Plasma pharmacokinetics” (male, C57BL/6, mouse, plasma, single intravenous 5 mg/kg, read-out: systemic plasma clearance), the clearance is 30 mL/min/kg. Further, in the data set “Plasma pharmacokinetics” (male, C57BL/6, mouse, plasma, single intravenous 5 mg/kg, read-out: terminal elimination half-life (converted)), the half-life is 13.8 min. Besides, the Vd in the data set “Plasma pharmacokinetics” (male, C57BL/6, mouse, plasma, single intravenous 5 mg/kg, similar to total body water, read-out: Vss) is ~0.7 L/kg. The “time plasma concentrations quantifiable up to” value in the data set “Plasma pharmacokinetics” (single intraperitoneal 25 mg/kg) was “up to 4 hr”; in the data set “Plasma pharmacokinetics” (single intraperitoneal 100 mg/kg), “up to 24 hr”. For the same compound, the “mRNA levels of Notch target genes Hes1 and Notch3” value with Notch target genes was “decrease the mRNA levels of Notch target genes Hes1 and Notch3”. Besides, in the data set on OE33 cells, the “increase in the percent of cells undergoing apoptosis compared to the control” value is given as “threefold”.

Usually Tmax stands for the time at which the peak concentration occurs. The term clearance denotes the volume of plasma or blood freed of the substance per unit of time. Usually half-life stands for the time in which the quantity being followed falls by half.
